# Reference: patent US6380227B1, “Fermentative preparation process for and crystal forms of cytostatics” (Novartis AG, priority 1998, dated 2002)
# Test: Stability of crystal forms of epothilone B
# Details: storage, no test described
structure (smiles),measurement,value
"C/C(=C\c1csc(C)n1)[C@@H]1C[C@@H]2O[C@]2(C)CCC[C@H](C)[C@H](O)[C@@H](C)C(=O)C(C)(C)[C@@H](O)CC(=O)O1 [crystal form A, epothilone B]",stability of the solid crystal form,especially stable
